Assay results from patent publication US6656510B2, “Hyperforin derivatives, use thereof and formulations containing them” (Indena S.p.A., priority 1998, dated 2003).

Experiments:
[1] = after only a few weeks; WO 97/13489; cited from earlier work
[2] = system: escape deficit (antidepressive effect); experiment: escape deficit development test; type: in vivo; conditions: rats, 2 week pre-treatment, escapes out of 30 stimuli
Protocol: In the escape deficit development test, rats are restrained and subjected to mild, short, unavoidable electric shocks for 50 minutes. This is known as the pre-test. 24 hours later, the rats are tested for their ability to avoid the same stimuli on their tails, in a situation where […]. A rat on the average makes 26 escapes out of 30 stimuli (naive controls), whereas a rat subjected to pre-test only makes 1 to 3 escapes (ED controls). […] The compounds of the invention, when administered to rats one hour before their exposure to the unavoidable stress, cause an increase in reactivity to the escape test. This increase in reactivity is enhanced when pre-treatment is effected for 1 to 2 weeks.

Structure (SMILES) | hyperforin content of a water-alcohol extract of St. Johns wort [1] | Number of Escapes ([2]; 6.25 mg/Kg) | Number of Escapes ([2]; 12.5 mg/Kg) | Number of Escapes ([2]; 25.0 mg/Kg)
CC(C)=CCC[C@]1(C)[C@@H](CC=C(C)C)C[C@@]2(CC=C(C)C)C(=O)[C@]1(C(=O)C(C)C)C(=O)C(CC=C(C)C)=C2O [hyperforin] | falls almost to zero |  |  | 
CC(=O)OC1=C(CC=C(C)C)C(=O)[C@]2(C(=O)C(C)C)C(=O)[C@]1(CC=C(C)C)C[C@H](CC=C(C)C)[C@@]2(C)CCC=C(C)C [Hyperforin acetate] |  | 12.6 ± 2.8 | 17.3 ± 1.9 | 21.2 ± 1.3
